Measured values published in ChEMBL document CHEMBL3621045, “Structural Insights Lead to a Negamycin Analogue with Improved Antimicrobial Activity against Gram-Negative Pathogens” (ACS Med Chem Lett, 2015).
Values after ≈ are worked out from the molar mass of the structure shown.

Experiments:
[1] = tested on: Pseudomonas aeruginosa; experiment: Antibacterial activity against Pseudomonas aeruginosa PAO1; format: functional
[2] = tested on: Klebsiella pneumoniae; experiment: Antibacterial activity against Klebsiella pneumoniae ATCC 700603; format: functional
[3] = tested on: Escherichia coli; experiment: Inhibition of transcription-translation process in Escherichia coli; format: functional
[4] = tested on: Acinetobacter baumannii; experiment: Antibacterial activity against Acinetobacter baumannii ARC 3495; format: functional
[5] = tested on: Escherichia coli; experiment: microbe, parasite or virus in culture; settings: ATCC 25922
Description: Antibacterial activity against Escherichia coli ATCC 25922

[6] = tested on: Pseudomonas aeruginosa; experiment: Antibacterial activity against mexABCDXY-deficient Pseudomonas aeruginosa PAO1; format: functional
[7] = tested on: Escherichia coli; experiment: microbe, parasite or virus in culture; settings: ATCC 25922; remark: listed apart in the source
Description: Antibacterial activity against tolC-deficient Escherichia coli ATCC 25922

Compound	MIC [1] [µg/mL]	MIC [2] [µg/mL]	IC50 ([3]; Escherichia coli) [nM]	MIC [4] [µg/mL]	MIC [5] [µg/mL]	MIC [6] [µg/mL]	MIC [7] [µg/mL]	IC50 [3] [nM]
CN(CC(=O)O)NC(=O)C[C@@H](N)C[C@@H](O)CN	> 256	256 (≈ 1030 µM)	13000	256 (≈ 1030 µM)	> 256	–	–	–
CN(CC(=O)O)NC(=O)C[C@H](N)C[C@@H](O)CNCCCCN	128 (≈ 401 µM)	16 (≈ 50.1 µM)	740	16 (≈ 50.1 µM)	32 (≈ 100 µM)	64 (≈ 200 µM)	32 (≈ 100 µM)	–
CN(CC(=O)O)NC(=O)C[C@H](N)C[C@@H](O)CNCCN	128 (≈ 439 µM)	32 (≈ 110 µM)	2100	64 (≈ 220 µM)	64 (≈ 220 µM)	64 (≈ 220 µM)	64 (≈ 220 µM)	–
CN(C)CCCNC[C@H](O)C[C@@H](N)CC(=O)NN(C)CC(=O)O	> 256	256 (≈ 768 µM)	15000	256 (≈ 768 µM)	> 256	> 256	> 256	–
CN(CC(=O)O)NC(=O)C[C@H](N)C[C@@H](O)CNCCCN	16 (≈ 52.4 µM)	4 (≈ 13.1 µM)	340	4 (≈ 13.1 µM)	8 (≈ 26.2 µM)	8 (≈ 26.2 µM)	16 (≈ 52.4 µM)	–
CN(CC(=O)O)NC(=O)C[C@H](N)C[C@@H](O)CNCCO	512 (≈ 1750 µM)	64 (≈ 219 µM)	630	64 (≈ 219 µM)	64 (≈ 219 µM)	128 (≈ 438 µM)	128 (≈ 438 µM)	–
CN(CC(=O)O)NC(=O)C[C@H](N)C[C@@H](O)CNCc1ccccn1	> 256	> 256	11000	> 256	> 256	> 256	256 (≈ 754 µM)	–
CN(CC(=O)O)NC(=O)C[C@H](N)[C@H](O)[C@@H](O)CN	> 256	> 256	43000	> 256	> 256	–	–	–
GENTAMICIN	–	–	–	–	–	–	–	400
CC(CN)CNC[C@H](O)C[C@@H](N)CC(=O)NN(C)CC(=O)O (stereo partly drawn)	32 (≈ 100 µM)	16 (≈ 50.1 µM)	1100	16 (≈ 50.1 µM)	32 (≈ 100 µM)	16 (≈ 50.1 µM)	16 (≈ 50.1 µM)	–
CC(N)CCNC[C@H](O)C[C@@H](N)CC(=O)NN(C)CC(=O)O (stereo partly drawn)	128 (≈ 401 µM)	64 (≈ 200 µM)	3400	64 (≈ 200 µM)	64 (≈ 200 µM)	64 (≈ 200 µM)	64 (≈ 200 µM)	–
CN(CC(=O)O)NC(=O)C[C@H](N)C[C@@H](O)CNCC1CCNC1 (stereo partly drawn)	256 (≈ 772 µM)	128 (≈ 386 µM)	3300	64 (≈ 193 µM)	256 (≈ 772 µM)	128 (≈ 386 µM)	256 (≈ 772 µM)	–
CN(CC(=O)O)NC(=O)C[C@H](N)C[C@@H](O)CNCCCNC(=N)N	512 (≈ 1470 µM)	128 (≈ 368 µM)	1700	64 (≈ 184 µM)	512 (≈ 1470 µM)	256 (≈ 737 µM)	256 (≈ 737 µM)	–
COCCNC[C@H](O)C[C@@H](N)CC(=O)NN(C)CC(=O)O	> 256	128 (≈ 418 µM)	5300	256 (≈ 836 µM)	> 256	> 256	128 (≈ 418 µM)	–
CN(CC(=O)O)NC(=O)C[C@H](N)[C@@H](O)[C@@H](O)CN	> 64	> 64	3200	64 (≈ 242 µM)	> 64	–	–	–
CN(CC(=O)O)NC(=O)C[C@@H](N)C[C@@H](O)CNCCCN	128 (≈ 419 µM)	64 (≈ 210 µM)	2800	32 (≈ 105 µM)	128 (≈ 419 µM)	128 (≈ 419 µM)	128 (≈ 419 µM)	–
CN(CC(=O)O)NC(=O)C[C@H](N)C[C@@H](O)CNC[C@H](O)CN	128 (≈ 398 µM)	64 (≈ 199 µM)	730	32 (≈ 99.6 µM)	64 (≈ 199 µM)	64 (≈ 199 µM)	32 (≈ 99.6 µM)	–
CN(CC(=O)O)NC(=O)C[C@H](N)C[C@@H](O)CNCC(N)CN (stereo partly drawn)	128 (≈ 400 µM)	64 (≈ 200 µM)	10000	32 (≈ 99.9 µM)	128 (≈ 400 µM)	128 (≈ 400 µM)	128 (≈ 400 µM)	–
CN(CC(=O)O)NC(=O)C[C@H](N)C[C@@H](O)CNC[C@@H](O)CN	256 (≈ 797 µM)	64 (≈ 199 µM)	2500	128 (≈ 398 µM)	256 (≈ 797 µM)	128 (≈ 398 µM)	64 (≈ 199 µM)	–
CCNC[C@H](O)C[C@@H](N)CC(=O)NN(C)CC(=O)O	512 (≈ 1850 µM)	64 (≈ 232 µM)	500	64 (≈ 232 µM)	64 (≈ 232 µM)	–	–	–
CN(CC(=O)O)NC(=O)C[C@H](N)C[C@@H](O)CNCc1ccccc1	> 256	128 (≈ 378 µM)	1000	> 256	128 (≈ 378 µM)	–	–	–
CN(CC(=O)O)NC(=O)C[C@H](N)C[C@@H](O)CNCCC(N)=O	> 256	> 256	4000	> 256	> 256	> 256	256 (≈ 802 µM)	–
CCN(CC(=O)O)NC(=O)C[C@H](N)C[C@@H](O)CN	128 (≈ 488 µM)	128 (≈ 488 µM)	7400	256 (≈ 976 µM)	256 (≈ 976 µM)	–	–	–
